Here are results for three molecules from patent US8728517B2, “Pharmaceutical compositions of entacapone co-micronized with sugar alcohols” (Wockhardt Ltd., priority 2008, dated 2014).

The nature of this series: Percent drug release of poorly soluble drugs combined with sugar alcohols. The format is physicochemical. The following applies: for effect on percent release: with sugar alcohols like mannitol or sorbitol, as physical mixture or complex.

As to `O=C1CCc2ccc(OCCCCN3CCN(c4cccc(Cl)c4Cl)CC3)cc2N1` [aripiprazole], the “effect on percent release” value was “does not make any significant difference”.

Take `CCN(CC)C(=O)/C(C#N)=C/c1cc(O)c(O)c([N+](=O)[O-])c1` [entacapone, (E)-2-cyano-3-(3,4-dihydroxy-5-nitrophenyl)-N,N-diethyl-2-propenamide]: the “effect on percent drug release” value (co-micronized with sugar alcohols vs formulation not co-micronized with a sugar alcohol) is “significant increase”.

With `CCCCC1=NC2(CCCC2)C(=O)N1Cc1ccc(-c2ccccc2-c2nnn[nH]2)cc1` [irbesartan], the “effect on percent release” value is “does not make any significant difference”.
